Experiments:
[1] = system: human articular chondrocytes; assay: Radioimmunoassay of prostaglandins E2 (PGE2) produced in tridimensional culture of human chondrocytes; assay type: cell-based; conditions: for Amounts of PGE2 in the culture media taken on the 4th and 8th day: 1% Ultroser G, incubation of the 4th to 8th day; for PGE2 in the culture medium: foetal calf serum
Source text: The model used for testing the proanthocyanidols, namely the tridimensional culture of human chondrocytes allows chondrorepair to be quantified by the production of matrix substances: type II collagen, proteoglycans, and chondroresorption by the reduction in the levels of prostaglandin E2 and of OH° and O°2 type free radicals produced.
(§1) 1. Tridimensional culture of human chondrocytes
(§2) The technique used has been described in detail (Bassleer et al., 1986).
(§3) Briefly, human articular chondrocytes are cultivated in DMEM (Dulbecco's Modification of Eagle's Medium--ICN--Gand, Belgium) with either Ultroser G 1% (GIBCO, Gand, Belgium) or 10% of foetal calf serum (ICN--Gand--Belgium), and 50 μg of ascorbic acid/ml added to it. The cartilage originates from the apparently normal zone of heads of human femur suffering from arthrosis, immediately after an operation carried out to insert a total hip prosthesis; it can also originate from the head of a healthy femur, but which has undergone a traumatism and has had to be replaced. This cartilage is then digested by clostridial collagenase 1 mg/ml (Boehringer-Mannheim, Germany) in a buffer (NaCl 120 mM, CaCl2 1 mM, KCl 5 mM, KH2 PO4 1 mM, NaHCO3 25 mM, glucose 2 mM and Hepes 30 mM, pH 7.4) for 24 hours. After 6 successive washings and centrifugations, the chondrocytes, isolated from their matrix, are cultured in flasks (10^6 cells/2 ml of culture medium) placed on a gyrator (10 rpm). The cultures are kept at 37° C. in an atmosphere of air 95%-CO2 5% (Bassleer et al., 1986). Cultivated under these conditions, after 4 to 5 days the chondrocytes form a tridimensional cluster in each flask. These clusters, which at first have a flocculent appearance, then tend to condense during the culture. After two weeks, their diameter is, in general, from 1 to 2 mm.
(§4) The fresh weight of the clusters increases with the duration of the culture, above all during the few first days.
4. Radioimmunoassay of prostaglandins E2 (PGE2)
The radioimmunoassay of PGE2s is carried out according to the method described by Serteyn et al., 1988. The PGE2 is obtained from Sigma (Aldrich-Chemie, Steinheim, Germany) and the ^3 H-PGE2 from NEN (Du Pont de Nemours, Brussels, Belgium). 0.1 ml of incubation buffer (10 mM Tris-HCl […], 0.5% sodium azide (W/V), 1% gelatine (W/V), pH 7.4), 0.1 ml of ^3 H-PGE2 (diluted so as to obtain 10,000 cpm/0.1 ml) and 0.1 ml of antiserum (1/4000) are added successively to 0.1 ml of the sample to be assayed or the reference antigen (0-500 pg). After incubation for 48 hours at 4° C., the free antigen is separated from the antigens bound to the antibodies by a precipitation with carbon-DEXTRAN T70 (0.5 ml per tube). The carbon-Dextran solution contains 5 g/l of neutral carbon, 500 mg of Dextran 70/l. After centrifugation (20 minutes, 3000 rpm, 4° C.), the radioactivity present in the supernatant is measured with a beta counter (Beckman) using liquid scintillation. The sensitivity of the assay is 20 pg/ml.
The accuracy of the method is 5%. The coefficients of the intra- and inter assay variation are 6% and 10% respectively. There is no cross reaction between this anti PGE2 antiserum and other prostanoids (Thromboxane B2, G-keto-PGF1-alpha, PGF2, PGA2), nor with the fatty acids such as arachidonic acid, oleic acid or also linoleic acid.
The results are expressed in quantities of PG, coll. II or PGE2 measured in the culture medium (CM) per μg of DNA. The cumulative measurements are obtained by adding the quantities assayed in the CMs to each renewal of the CM, for successive periods: 0 to 4, 4 to 8, 8 to 12 days of culture. The total production of PG is calculated by adding the cumulative quantities measured in the CMs to those measured in the corresponding clusters. The mean and the standard deviation (m±s.d) are calculated. Comparison of the mean values is carried out using the Mann-Whitney U statistical test. […]

[2] = system: human articular chondrocytes; assay: Synthesis of DNA by incorporation of 3H-thymidine in the chondrocytes, index of cell proliferation; assay type: cell-based; conditions: 1, 10 and 100 pg/ml (so in the source); relative to control values
Protocol: as §1, §2, §3, §4
5. Analysis of the synthesis of DNA by measurement of the incorporation of ^3 H-thymidine
After different culture durations, the chondrocytes are cultivated in nutritive medium with the addition of 2 uCi/ml (5 Ci/mmole) of methyl ^3 H-thymidine (^3 H-TDN) (Amersham, Brussels, Belgium) for 24 hours. […]
The radioactivity incorporated in the cluster is then measured using a beta scintillation counter.

ferricytochrome C = assay: Control experiments: direct reduction of ferricytochrome C by the product itself; assay type: biochemical; conditions: effect not quantifiable
Source text: This effect not being quantifiable, no conclusion can consequently be drawn on a possible inhibiting effect of these products on the production of the superoxide anion by the activated PMNs.

Row | Structure (SMILES) | Amounts of PGE2 in the culture media taken on the 4th and 8th day ([1]; 1 μg/ml) | Amounts of PGE2 in the culture media taken on the 4th and 8th day ([1]; 10 μg/ml) | Amounts of PGE2 in the culture media taken on the 4th and 8th day ([1]; 100 μg/ml) | PGE2 in the culture medium ([1]; 0-4 days, 10 μg/ml) [pg/μg DNA/96 H] | PGE2 in the culture medium ([1]; 0-4 days, 100 μg/ml) [pg/μg DNA/96 H] | PGE2 in the culture medium ([1]; 4-8 days, 10 μg/ml) [pg/μg DNA/96 H] | PGE2 in the culture medium ([1]; 4-8 days, 100 μg/ml) [pg/μg DNA/96 H] | Incorporation of 3H thymidine in the chondrocytes [2] | Direct reduction of ferricytochrome C (ferricytochrome C)
1 | Oc1cc(O)c2c(c1)O[C@H](c1cc(O)c(O)c(O)c1)[C@@H](O)[C@@H]2c1c(O)cc(O)c2c1O[C@H](c1cc(O)c(O)c(O)c1)[C@@H](O)[C@@H]2c1c(O)cc(O)c2c1O[C@H](c1cc(O)c(O)c(O)c1)[C@@H](O)C2 [Substance Ic, GC-(4 alpha→8) GC-(4 a→8)-GC] | 101 ± 7 pg/μg of DNA | 81 ± 12 pg/μg of DNA | 39 ± 10 pg/μg of DNA | 160 ± 17 | 153 ± 15 | 35.5 ± 2.1 | 29 ± 3.5 | None of the substances Ia, lb and Ic modifies the incorporation | powerful reducers of ferricytochrome C
2 | Oc1cc(O)c2c(c1)O[C@H](c1cc(O)c(O)c(O)c1)[C@@H](O)[C@@H]2c1c(O)cc(O)c2c1O[C@H](c1cc(O)c(O)c(O)c1)[C@@H](O)C2 [Substance Ib, GC-(4 alpha→8) GC] | 129 ± 19 pg/μg of DNA | 76 ± 14 pg/μg of DNA | 48 ± 15 pg/μg of DNA | 130 ± 21 | 121 ± 16 | 30 ± 1.7 | 25 ± 1 | None of the substances Ia, lb and Ic modifies the incorporation | powerful reducers of ferricytochrome C
3 | Oc1cc(O)c2c(c1)O[C@H](c1cc(O)c(O)c(O)c1)[C@@H](O)[C@@H]2c1c(O)cc(O)c2c1O[C@H](c1cc(O)c(O)c(O)c1)[C@H](O)C2 [Substance Ia, GC-(4 alpha→8) EGC] | 91.5 ± 9 pg/μg of DNA | 44 ± 0.6 pg/μg of DNA | 25 ± 13 pg/μg of DNA | 312 ± 15 | 143 ± 25 | 27 ± 2.5 | 25 ± 3.5 | None of the substances Ia, lb and Ic modifies the incorporation | powerful reducers of ferricytochrome C

— patent publication US5670538A, “Use of prodelphinidins for obtaining medicaments intended for the treatment of arthrosis” (Laboratoires Dolisos, priority 1992, dated 1997)
